The values that follow come from US20240327392A1, “HETEROCYCLOALKYL-SUBSTITUTED POLYHETEROAZOLE DERIVATIVES AS MEDICAMENTS FOR TREATING AND/OR PREVENTING RS VIRUS INFECTIONS” (ALBIUS SCIENCES ALPHA PRIVATE LIMITED, priority 2021, published 2024).

Where only a bound is given, the exact number is not on record here.

The first assay deals with human RS virus A2 strain. Description: In vitro test for anti-RS virus proliferation inhibitory activity (quantitative RT-PCR of RS virus RNA copy number in infected Vero cells). It is filed as cell-based. To be noted: 72 h; Vero cells infected with human RS virus A2 strain, 3 days of incubation, RS virus N gene RNA copy number by quantitative RT-PCR; read-out: Anti-RS virus Activity. The essentials:
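Vero cells infected with RSV A2 (1.7×10^4 TCID50/mL in inoculum mix) with compound in 10% FCS EMEM, 3 days at 37 °C, 5% CO2. Lysate viral N-gene RNA quantified by one-step SYBR qRT-PCR; copy number by comparative Ct relative to untreated infected cells.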
With `O=S(=O)(Cc1ccccc1)N1CCC[C@H]1c1nc(CCCc2ccccc2)no1` [Compound 1E, 3-(3-phenylpropyl)-5-[(2S)-1-benzylsulfonylpyrrolidin-2-yl]-1,2,4-oxadiazole], the IC50 was 10 to 50 µM.

Still in this assay, the particulars now being: 72 h; Vero cells infected with human RS virus A2 strain, 3 days of incubation, RS virus RNA copy number by quantitative RT-PCR; read-out: Anti-RS virus Activity.
Consider `COc1ccc(CCCc2noc([C@@H]3CCCCN3S(=O)(=O)C3CCCCC3)n2)cc1OC` [Compound 22B, (S)-5-(1-(cyclohexylsulfonyl)piperidin-2-yl)-3-(3-(3,4-dimethoxyphenyl)propyl)-1,2,4-oxadiazole], for which the IC50 was < 10 µM.
For `CC(C)(C)OC(=O)N1C[C@H](F)C[C@H]1c1nc(CCCc2ccccc2)no1` [Compound 8-1, 3-(3-phenylpropyl)-5-[(2S,4R)-1-tert-butoxycarbonyl-4-fluoropyrrolidin-2-yl]-1,2,4-oxadiazole], the IC50 is < 10 µM.
In the case of `CC(C)NC(=O)N1CCCC[C@H]1c1nc(CCc2ccccc2)no1` [Compound 10G, (S)—N-isopropyl-2-(3-phenethyl-1,2,4-oxadiazol-5-yl) piperidine-1-carboxamide], the IC50 is > 50 µM.
On the same count and under the same terms, the result for `CC(C)(C)NC(=O)N1[C@@H]2CC[C@@H](C2)[C@H]1c1nnc(Cc2c[nH]c3ccccc23)[nH]1` [Compound 24H, (1R,3S,4S)-3-(5-((1H-indol-3-yl)methyl)-4H-1,2,4-triazol-3-yl)-N-(tert-butyl)-2-azabicyclo[2.2.1]heptane-2-carboxamide] reads 10 to 50 µM.
For the compound `CC(C)(C)OC(=O)N1CCC(CS(=O)(=O)N2CC(CC3CCC3)CC2c2nc(CCCc3ccccc3)no2)CC1` (stereo not shown) [Compound 6AN, tert-buthyl 4-(((4-(cyclobuthylmethyl)-2-(3-(3-phenylpropyl)-1,2,4-oxadiazole-5-yl)pyrrolidin-1-yl)sulfonyl)methyl)piperidin-1-carboxylate], the IC50 lay within 10 to 50 µM.
Still for that read-out and setting: the result for `O=S(=O)(Cc1ccccc1)N1CC(CC2CCC2)CC1c1nc(CCCc2ccccc2)no1` (stereo not shown) [Compound 6E, 3-(3-phenylpropyl)-5-(1-benzylsulfonyl-4-cyclobutylmethylpyrrolidin-2-yl)-1,2,4-oxadiazole] reads < 10 µM.
Same read-out and setting: the result for `O=S(=O)(N1CCOCC1)N1CC2(CC2)C[C@H]1c1nc(CCCc2ccccc2)no1` [Compound 5AE, (S)-4-((6-(3-(3-phenylpropyl)-1,2,4-oxadiazole-5-yl)-5-azaspiro[2.4]heptan-5-yl)sulfonyl)morpholine] reads 10 to 50 µM; that for `CC(C)(C)OC(=O)N1C[C@H](c2ccccc2)C[C@H]1c1nc(CCc2ccccc2)no1` [Compound C2-7-1, Tert-butyl (2S,4S)-2-(3-phenethyl-1,2,4-oxadiazol-5-yl)-4-phenylpyrrolidine-1-carboxylate], 10 to 50 µM.
`CC(C)(C)OC(=O)N1CCCC[C@H]1c1nnc(CCCc2ccccc2)[nH]1` [Compound 20-1, Tert-butyl (S)-2-(5-(3-phenylpropyl)-4H-1,2,4-triazol-3-yl) piperidine-1-carboxylate]: the IC50 is < 10 µM.
Still for that read-out and setting: the result for `CC(C)(C)OC(=O)N1[C@@H]2CC[C@@H](C2)[C@H]1c1nnc(CCc2ccncc2)[nH]1` [Compound 25-1, Tert-butyl (1R,3S,4S)-3-(5-(2-(pyridin-4-yl)ethyl)-4H-1,2,4-triazol-3-yl)-2-azabicyclo[2.2.1]heptane-2-carboxylate] reads 10 to 50 µM.
As for `CC(C)CS(=O)(=O)N1CCCC[C@H]1c1nc(CCc2ccncc2)no1` [Compound 12A, (S)-5-(1-(Isobutylsulfonyl)piperidin-2-yl)-3-(2-(pyridin-4-yl)ethyl)-1,2,4-oxadiazole], the IC50 is < 10 µM.
On the same count and under the same terms, the result for `CC(C)CS(=O)(=O)N1CC(CC2CCC2)CC1c1nc(CCCc2ccccc2)no1` (stereo not shown) [Compound 6A, 3-(3-phenylpropyl)-5-(1-isobutylsulfonyl-4-cyclobutylmethylpyrrolidin-2-yl)-1,2,4-oxadiazole] reads < 10 µM; that for `CC(C)(C)OC(=O)N1[C@@H]2CC[C@@H](C2)[C@H]1c1nnc(Cc2c[nH]c3ccccc23)[nH]1` [Compound 24-1, Tert-butyl (1R,3S,4S)-3-(5-((1H-indol-3-yl)methyl)-4H-1,2,4-triazol-3-yl)-2-azabicyclo[2.2.1]heptane-2-carboxylate], 10 to 50 µM.
The same measure, in the same setting: the result for `CC(C)CS(=O)(=O)N1CCCC[C@H]1c1nc(CCc2ccccc2)no1` [Compound 10A, 3-(2-phenylethyl)-5-[(2S)-1-isobutylsulfonylpiperidin-2-yl]-1,2,4-oxadiazole] reads > 50 µM; that for `CC(C)COC(=O)N1CCC[C@H]1c1nc(CCCc2ccccc2)no1` [Compound 1I, Isobutyl (S)-2-(3-(3-phenylpropyl)-1,2,4-oxadiazol-5-yl) pyrrolidine-1-carboxylate], < 10 µM; that for `CC(C)(C)OC(=O)N1CCC(CS(=O)(=O)N2C[C@H](c3ccccc3)C[C@H]2c2nc(CCCc3ccccc3)no2)CC1` [Compound 7AN, tert-buthyl 4-((((2S,4S)-4-phenyl2-(3-(3-phenylpropyl)-1,2,4-oxadiazole-5-yl)pyrrolidin-1-yl)sulfonyl)methyl)piperidin-1-carboxylate], < 10 µM.
`CS(=O)(=O)N1CC(c2ccccc2)C[C@H]1c1nc(CCCc2ccccc2)no1` (stereo in doubt) [Compound 7C, 3-(3-phenylpropyl)-5-[(2S,4S)-1-methanesulfonyl-4-phenylpyrrolidin-2-yl]-1,2,4-oxadiazole]: the IC50 was < 10 µM.
Still for that read-out and setting: the figure for `O=S(=O)(c1ccc(F)cc1)N1CC(CC2CCC2)CC1c1nc(CCCc2ccccc2)no1` (stereo not shown) [Compound 6AJ, 5-(4-(cyclobuthylmethyl)-1-((4-fluorophenyl)sulfonyl)pyrrolidin-2-yl)-3-(3-phenylpropyl)-1,2,4-oxsdiazole] is < 10 µM; for `Cc1sc([C@@H]2CCCCN2S(=O)(=O)C2CCCCC2)nc1C(=O)NCc1ccccc1` [Compound 37B, (S)—N-Benzyl-2-(1-(cyclohexylsulfonyl)piperidin-2-yl)-5-methylthiazole-4-carboxamide] it is < 10 µM; for `O=S(=O)(c1ccc(F)cc1)N1C[C@H](c2ccccc2)C[C@H]1c1nc(CCCc2ccccc2)no1` [Compound 7AJ] it is < 10 µM.
On the same count and under the same terms, the result for `CC(C)NC(=O)N1CCC[C@H]1c1nc(CCCc2ccccc2)no1` [Compound 1G, (S)—N-isopropyl-2-(3-(3-phenylpropyl)-1,2,4-oxadiazol-5-yl)pyrrolidine-1-carboxamide] reads > 50 µM; that for `CC(C)(C)OC(=O)N1CC(CS(=O)(=O)N2CC3(CC3)C[C@H]2c2nc(CCCc3ccccc3)no2)C1` [Compound 5AM, tert-buthyl (S)-3-(((6-(3-(3-phenylpropyl)-1,2,4-oxadiazole-5-yl)-5-azaspiro[2.4]heptan-5-yl)sulfonyl)methyl)azetidin-1-carboxylate], < 10 µM; that for `CC(C)(C)OC(=O)N1CCC(S(=O)(=O)N2CC3(CC3)C[C@H]2c2nc(CCCc3ccccc3)no2)CC1` [Compound 5AO, tert-buthyl (S)-4-((6-(3-(3-phenylpropyl)-1,2,4-oxadiazole-5-yl)-5-azaspiro[2.4]heptan-5-yl)sulfonyl)piperidin-1-carboxylate], < 10 µM.
On the same count and under the same terms, the figure for `O=C(NCc1noc([C@@H]2CCCCN2S(=O)(=O)C2CCCCC2)n1)c1cccc2ccccc12` [Compound 26B, (S)—N-((5-(1-(cyclohexylsulfonyl)piperidin-2-yl)-1,2,4-oxadiazol-3-yl)methyl)-1-naphthamide] is 10 to 50 µM.
